This passage reports Inhibition results from patent US20250275539A1, “APYRASE INHIBITORS” (Texas Crop Science, Inc., priority 2024, published 2025).

The subject of the test is apyrase. Briefly: Apyrase inhibition assay (screen for apyrase inhibitors, phosphate release read at 630 nm). It is filed as biochemical. The settings on record: inhibitor conc at 1 mM (10 μl added), 3 mM ATP, pH 6.5, room temperature 1 hr. As to the method: Apyrase inhibitors useful as enhancers of pesticidal activity are assessed using an in vitro assay. The method of Windsor, Bio Techniques 33:1024-1030 (November 2002) was used as follows
• 96 well plates were used for the assay: (Greiner bio-one: REF-655901-96 well, PS, F-bottom, Clear, Non-binding)
• Reaction Buffer: 60 mM Hepes; 3 mM MgCl2, 3 mM CaCl2) and 3 mM ATP (pH 6.5) • Development Buffer A: 2% aqueous ammonium molybdate • Development Buffer B: 11% ascorbic acid in 37.5% TCA in water • Stop buffer C: 2% trisodium citrate in 2% acetic acid solution in water
• Add 100 μl of reaction buffer to each well. • Add 10 μl of DMSO (control) or inhibitor/compound or compounds such as N1915 or orthovanadate to each well. (use inhibitor conc at 1 mM; orthovanadate at 2 mM and N1915 at 1 mM) • Add 10 μl of apyrase (concentration based on optimization—Dilute 1 U/μl enzyme to different concentrations such as 0.1 U, 0.05 U, 0.0025, 0.001 U, 0.0005 U—to find a good range) • Incubate plate at room temperature for 1 hr • Mix development buffer A and B in the ratio of 1:1.5 (just before use). • Add 50 μl of A: B mix in each well (incubate for 2 mins) • Add 50 μl of C in each well • Measure/Read Absorbance of plate @630 nm
Inhibitory data for the apyrase assay described above are provided for selected compounds in Table 3. D is inhibition of 0% to 10%, C is inhibition from 10% to 20%, B is inhibition from 20% to 30%, and A is inhibition above 30%. Blank entries signify compounds that were not tested.

For `CCCc1ccc(S(=O)(=O)Nc2cc(Cl)c(OC)cc2OC)cc1` [Compound A-49, N-(5-chloro-2,4-dimethoxyphenyl)-4-propylbenzenesulfonamide], the Inhibition result is reported as “D (D is inhibition of 0% to 10%)”.

Consider `CCCc1ccc(S(=O)(=O)Nc2ccc(S(C)(=O)=O)cc2)cc1` [Compound A-50, N-(4-(methylsulfonyl)phenyl)-4-propylbenzenesulfonamide], for which the Inhibition result was “C (C is inhibition from 10% to 20%)”.

`CCCc1ccc(S(=O)(=O)Nc2c(F)cc(F)cc2Br)cc1` [Compound A-51, N-(2-bromo-4,6-difluorophenyl)-4-propylbenzenesulfonamide]: the Inhibition result was “D (D is inhibition of 0% to 10%)”.

On to `CCCc1ccc(S(=O)(=O)Nc2ccc(S(=O)(=O)N=C3CCCCCN3)cc2)cc1` [Compound A-52, N-(azepan-2-ylidene)-4-((4-propylphenyl)sulfonamido) benzenesulfonamide], for which the Inhibition entry is listed as “C (C is inhibition from 10% to 20%)”.

For the molecule `CCCc1ccc(S(=O)(=O)Nc2ccccc2C(=O)OC)cc1` [Compound A-53, methyl 2-((4-propylphenyl)sulfonamido) benzoate], the Inhibition result is recorded as “C (C is inhibition from 10% to 20%)”.

For the molecule `CCCc1ccc(S(=O)(=O)Nc2ccc3c(c2)OCCO3)cc1` [Compound A-54, N-(2,3-dihydrobenzo[b][1,4]dioxin-6-yl)-4-propylbenzenesulfonamide], the Inhibition entry is given as “D (D is inhibition of 0% to 10%)”.

Take `CCCc1ccc(S(=O)(=O)Nc2ccccc2Br)cc1` [Compound A-55, N-(2-bromophenyl)-4-propylbenzenesulfonamide]: the Inhibition entry is given as “D (D is inhibition of 0% to 10%)”.

Consider `Cc1cccc(NS(=O)(=O)c2ccc(Cl)cc2)c1` [Compound A-56, 4-chloro-N-(m-tolyl)benzenesulfonamide], for which the Inhibition result is reported as “C (C is inhibition from 10% to 20%)”.

As for `Cc1cccc(NS(=O)(=O)c2ccccc2)c1` [Compound A-57, N-(m- tolyl)benzenesulfonamide], the Inhibition result is listed as “D (D is inhibition of 0% to 10%)”.

On to `Cc1cccc(NS(=O)(=O)c2ccc(F)cc2)c1` [Compound A-58, 4-fluoro-N-(m-tolyl)benzenesulfonamide], for which the Inhibition entry is “D (D is inhibition of 0% to 10%)”.

As to `Cc1cccc(NS(=O)(=O)c2ccc(S(=O)(=O)N3CCCC3)cc2)c1` [Compound A-60, 4-(pyrrolidin-1-ylsulfonyl)-N-(m-tolyl)benzenesulfonamide], the Inhibition entry is on record as “D (D is inhibition of 0% to 10%)”.

As to `Cc1cccc(NS(=O)(=O)c2ccc(C=CC(=O)O)cc2)c1` [Compound A-61, 3-(4-(N-(m-tolyl)sulfamoyl)phenyl)acrylic acid], the Inhibition entry is given as “D (D is inhibition of 0% to 10%)”.

As for `Cc1cccc(NS(=O)(=O)c2ccc(OC(F)(F)F)cc2)c1` [Compound A-63, N-(m-tolyl)-4-(trifluoromethoxy)benzenesul-fonamide], the Inhibition result is “C (C is inhibition from 10% to 20%)”.

`Cc1cccc(NS(=O)(=O)c2ccc(C(=O)O)cc2)c1` [Compound A-65, 4-(N-(m-tolyl)sulfamoyl)benzoic acid]: the Inhibition result is listed as “B (B is inhibition from 20% to 30%)”.

Take `Cc1cccc(NS(=O)(=O)c2ccc(C(=O)NCC(F)(F)F)cc2)c1` [Compound A-66, 4-(N-(m-tolyl)sulfamoyl)-N-(2,2,2-trifluoroethyl)benzamide]: the Inhibition result was “C (C is inhibition from 10% to 20%)”.

For `CCCc1ccc(S(=O)(=O)Nc2cc(Cl)ccc2Sc2nncn2C)cc1` [Compound A-67, N-(5-chloro-2-((4-methyl-4H-1,2,4-triazol-3-yl)thio)phenyl)-4-propylbenzenesulfonamide], the Inhibition result is “C (C is inhibition from 10% to 20%)”.

As to `CCCc1ccc(S(=O)(=O)Nc2cc(OC)c(Cl)cc2OC)cc1` [Compound A-68, N-(4-chloro-2,5-dimethoxyphenyl)-4-propylbenzenesulfonamide], the Inhibition result is “D (D is inhibition of 0% to 10%)”.

As for `CCCc1ccc(S(=O)(=O)Nc2ccc3[nH]ncc3c2)cc1` [Compound A-69, N-(1H-indazol-5-yl)-4-propylbenzenesulfonamide], the Inhibition entry was “D (D is inhibition of 0% to 10%)”.

As to `CCCc1ccc(S(=O)(=O)Nc2cccc([N+](=O)[O-])c2)cc1` [Compound A-70, N-(3-nitrophenyl)-4-propylbenzenesulfonamide], the Inhibition result is on record as “C (C is inhibition from 10% to 20%)”.

Consider `CCCc1ccc(S(=O)(=O)Nc2ccccc2Cl)cc1` [Compound A-71, N-(2-chlorophenyl)-4-propylbenzenesulfonamide], for which the Inhibition result is “D (D is inhibition of 0% to 10%)”.

Regarding `CCCc1ccc(S(=O)(=O)Nc2cccc(S(N)(=O)=O)c2)cc1` [Compound A-72, 4-propyl-N-(3-sulfamoylphenyl)benzene-sulfonamide], the Inhibition result was “C (C is inhibition from 10% to 20%)”.

In the case of `CCCc1ccc(S(=O)(=O)Nc2ccccc2C(F)(F)F)cc1` [Compound A-73, 4-propyl-N-(2-(trifluoromethyl)phenyl) benzenesulfonamide], the Inhibition result is “D (D is inhibition of 0% to 10%)”.

Regarding `CCCc1ccc(S(=O)(=O)Nc2cc(Cl)ccc2OC)cc1` [Compound A-74, N-(5-chloro-2-methoxyphenyl)-4-propylbenzenesulfonamide], the Inhibition entry is “C (C is inhibition from 10% to 20%)”.

`CCCc1ccc(S(=O)(=O)Nc2cccc(C(=O)O)c2)cc1` [Compound A-75, 3-((4-propylphenyl)sulfonamido) benzoic acid]: the Inhibition result is “D (D is inhibition of 0% to 10%)”.

In the case of `CCCc1ccc(S(=O)(=O)Nc2c(C(C)C)cccc2C(C)C)cc1` [Compound A-76, N-(2,6-diisopropylphenyl)-4-propylbenzenesulfonamide], the Inhibition result is on record as “C (C is inhibition from 10% to 20%)”.

`CCCc1ccc(S(=O)(=O)Nc2cccc(NC(C)=O)c2)cc1` [Compound A-77, N-(3-((4-propylphenyl)sulfonamido)phenyl)acetamide]: the Inhibition entry was “D (D is inhibition of 0% to 10%)”.

Regarding `CCCc1ccc(S(=O)(=O)Nc2ccc(C(=O)N(CC)CC)cc2)cc1` [Compound A-78, N,N-diethyl-4-((4-propylphenyl)sulfonamido) benzamide], the Inhibition entry is reported as “D (D is inhibition of 0% to 10%)”.

Consider `CCCc1ccc(S(=O)(=O)Nc2ccc(S(=O)(=O)N(C)C3CCCCC3)cc2)cc1` [Compound A-79, N-cyclohexyl-N-methyl-4-((4-propylphenyl)sulfonamido) benzenesulfonamide], for which the Inhibition result is listed as “A (A is inhibition above 30%)”.

On to `CCCc1ccc(S(=O)(=O)Nc2ccc(S(=O)(=O)NC)cc2)cc1` [Compound A-80, N-methyl-4-((4-propylphenyl)sulfonamido) benzenesulfonamide], for which the Inhibition entry was “D (D is inhibition of 0% to 10%)”.

For `CCCc1ccc(S(=O)(=O)Nc2ccc(C(N)=O)cc2)cc1` [Compound A-81, 4-((4-propylphenyl)sulfonamido) benzamide], the Inhibition entry is listed as “D (D is inhibition of 0% to 10%)”.

As to `CCCc1ccc(S(=O)(=O)Nc2ccc(C)cc2Cl)cc1` [Compound A-82, N-(2-chloro-4-methylphenyl)-4-propylbenzenesulfonamide], the Inhibition result is on record as “C (C is inhibition from 10% to 20%)”.

Turning to `CCCCc1ccc(NS(=O)(=O)c2ccc(CCC)cc2)cc1` [Compound A-83, N-(4-butylphenyl)-4-propylbenzenesulfonamide], the Inhibition result is on record as “B (B is inhibition from 20% to 30%)”.

Regarding `CCCc1ccc(S(=O)(=O)Nc2cccc(C(N)=O)c2)cc1` [Compound A-84, 3-((4-propylphenyl)sulfonamido) benzamide], the Inhibition result is reported as “D (D is inhibition of 0% to 10%)”.

For `CCCc1ccc(S(=O)(=O)Nc2ccc(S(=O)(=O)Nc3nccs3)cc2)cc1` [Compound A-85, 4-propyl-N-(4-(N-(thiazol-2-yl)sulfamoyl)phenyl)benzene-sulfonamide], the Inhibition entry is given as “D (D is inhibition of 0% to 10%)”.

`CCCc1ccc(S(=O)(=O)Nc2ccccc2C(N)=O)cc1` [Compound A-86, 2-((4-propylphenyl)sulfonamido) benzamide]: the Inhibition entry is on record as “D (D is inhibition of 0% to 10%)”.

For the molecule `CCCc1ccc(S(=O)(=O)Nc2c(F)cccc2F)cc1` [Compound A-87, N-(2,6-difluorophenyl)-4-propylbenzenesulfonamide], the Inhibition entry is “C (C is inhibition from 10% to 20%)”.

Regarding `CCCc1ccc(S(=O)(=O)Nc2cc(C)ccc2OC)cc1` [Compound A-88, N-(2-methoxy-5-methylphenyl)-4-propylbenzenesulfonamide], the Inhibition result is “D (D is inhibition of 0% to 10%)”.

Take `CCCc1ccc(S(=O)(=O)Nc2ccc(C)c(S(=O)(=O)N(C)C)c2)cc1` [Compound A-89, N,N,2-trimethyl-5-((4-propylphenyl)sulfonamido) benzenesulfonamide]: the Inhibition entry was “D (D is inhibition of 0% to 10%)”.
